Data as given in patent US20230338360A1, “Method of Inhibiting Constitutively Active Phosphorylated FLT3 Kinase” (Arog Pharmaceuticals, Inc., priority 2012, published 2023).
Read-outs that look alike come from different tables or passages of the source.

Key:
[1] = test system: primary AML patient blasts with FLT3 ITD and FLT3 D835Y mutation; settings: blasts incubated 3 days; patient relapsed after AC220; cited from earlier work
[2] = test system: Ba/F3 D835Y; settings: text: viability, read-out: IC50 pFLT3; cited from earlier work
[3] = biological target: FGFR-2 (Homo sapiens, UniProt P21802); assay: Inhibition of other RTKs (IC50); format: biochemical
Chain of FGFR-2 (P21802 22-821, species assumed): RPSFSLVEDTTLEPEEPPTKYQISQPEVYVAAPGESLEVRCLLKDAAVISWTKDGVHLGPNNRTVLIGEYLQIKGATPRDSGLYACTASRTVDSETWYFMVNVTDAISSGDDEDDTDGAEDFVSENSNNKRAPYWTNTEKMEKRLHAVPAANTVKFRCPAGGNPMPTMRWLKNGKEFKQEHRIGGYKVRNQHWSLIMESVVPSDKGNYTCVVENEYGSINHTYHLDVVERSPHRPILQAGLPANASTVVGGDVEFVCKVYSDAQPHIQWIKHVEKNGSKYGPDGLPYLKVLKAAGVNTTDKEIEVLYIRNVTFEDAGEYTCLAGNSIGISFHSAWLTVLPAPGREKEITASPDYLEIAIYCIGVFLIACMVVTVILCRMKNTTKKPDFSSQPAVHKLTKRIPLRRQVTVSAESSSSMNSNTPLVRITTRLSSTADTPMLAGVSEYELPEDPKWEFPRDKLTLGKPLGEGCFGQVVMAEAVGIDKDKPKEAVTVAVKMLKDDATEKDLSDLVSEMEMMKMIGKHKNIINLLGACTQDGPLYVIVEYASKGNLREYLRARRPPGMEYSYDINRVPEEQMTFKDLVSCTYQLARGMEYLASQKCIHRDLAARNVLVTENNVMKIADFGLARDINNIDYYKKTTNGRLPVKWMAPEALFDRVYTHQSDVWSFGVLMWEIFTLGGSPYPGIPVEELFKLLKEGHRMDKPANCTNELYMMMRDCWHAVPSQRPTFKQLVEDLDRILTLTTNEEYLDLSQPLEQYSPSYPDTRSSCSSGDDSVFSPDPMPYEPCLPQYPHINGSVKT

[4] = biological target: VEGFR-2 (Homo sapiens, UniProt P35968); assay: Inhibition of other RTKs (IC50); format: biochemical
Chain of VEGFR-2 (P35968 20-1356, species assumed): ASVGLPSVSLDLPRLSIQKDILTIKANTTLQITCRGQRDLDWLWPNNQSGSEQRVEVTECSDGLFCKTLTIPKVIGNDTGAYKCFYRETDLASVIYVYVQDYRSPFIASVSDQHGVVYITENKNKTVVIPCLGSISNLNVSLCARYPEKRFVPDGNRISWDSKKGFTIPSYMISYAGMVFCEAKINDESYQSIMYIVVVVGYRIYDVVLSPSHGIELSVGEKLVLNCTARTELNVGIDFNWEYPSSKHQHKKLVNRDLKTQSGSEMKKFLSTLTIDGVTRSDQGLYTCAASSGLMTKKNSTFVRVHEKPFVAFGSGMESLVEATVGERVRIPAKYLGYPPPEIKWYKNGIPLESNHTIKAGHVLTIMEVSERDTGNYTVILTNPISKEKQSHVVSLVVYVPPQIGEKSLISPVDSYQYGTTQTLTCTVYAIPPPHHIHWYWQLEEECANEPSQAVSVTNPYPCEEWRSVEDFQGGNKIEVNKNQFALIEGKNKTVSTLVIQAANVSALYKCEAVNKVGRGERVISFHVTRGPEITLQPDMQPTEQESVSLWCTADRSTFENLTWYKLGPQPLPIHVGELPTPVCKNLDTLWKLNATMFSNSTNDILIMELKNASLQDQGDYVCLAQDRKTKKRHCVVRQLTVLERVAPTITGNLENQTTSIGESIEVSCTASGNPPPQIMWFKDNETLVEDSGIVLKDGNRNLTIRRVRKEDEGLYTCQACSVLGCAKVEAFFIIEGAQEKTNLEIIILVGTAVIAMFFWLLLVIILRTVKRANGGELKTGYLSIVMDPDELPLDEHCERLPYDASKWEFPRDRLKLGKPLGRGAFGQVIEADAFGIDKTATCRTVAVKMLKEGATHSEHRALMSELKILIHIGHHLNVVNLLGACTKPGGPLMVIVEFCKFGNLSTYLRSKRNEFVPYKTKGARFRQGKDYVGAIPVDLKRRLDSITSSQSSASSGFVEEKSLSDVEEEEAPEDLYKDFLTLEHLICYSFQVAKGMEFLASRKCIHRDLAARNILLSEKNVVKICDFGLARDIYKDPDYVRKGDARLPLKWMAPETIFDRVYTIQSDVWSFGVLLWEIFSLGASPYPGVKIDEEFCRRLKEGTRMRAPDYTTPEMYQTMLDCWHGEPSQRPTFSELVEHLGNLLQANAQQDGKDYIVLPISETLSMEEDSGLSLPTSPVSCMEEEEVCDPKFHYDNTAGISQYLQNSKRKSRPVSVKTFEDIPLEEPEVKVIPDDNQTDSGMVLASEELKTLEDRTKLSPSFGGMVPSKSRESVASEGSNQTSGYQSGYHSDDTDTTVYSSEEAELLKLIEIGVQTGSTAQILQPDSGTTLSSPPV

[5] = biological target: ABL1(T315I) phosphorylated (Homo sapiens, UniProt P00519, T315I)
[6] = test system: FLT3-ITD MV411 cells; settings: crenolanib 0.1 uM for 5 minutes and 2 hours, […] radiolabeled cytarabine; cited from earlier work
[7] = biological target: EGFR (Homo sapiens, UniProt P00533); assay: Inhibition of other RTKs (IC50); format: biochemical
Chain of EGFR (P00533 25-1210, species assumed): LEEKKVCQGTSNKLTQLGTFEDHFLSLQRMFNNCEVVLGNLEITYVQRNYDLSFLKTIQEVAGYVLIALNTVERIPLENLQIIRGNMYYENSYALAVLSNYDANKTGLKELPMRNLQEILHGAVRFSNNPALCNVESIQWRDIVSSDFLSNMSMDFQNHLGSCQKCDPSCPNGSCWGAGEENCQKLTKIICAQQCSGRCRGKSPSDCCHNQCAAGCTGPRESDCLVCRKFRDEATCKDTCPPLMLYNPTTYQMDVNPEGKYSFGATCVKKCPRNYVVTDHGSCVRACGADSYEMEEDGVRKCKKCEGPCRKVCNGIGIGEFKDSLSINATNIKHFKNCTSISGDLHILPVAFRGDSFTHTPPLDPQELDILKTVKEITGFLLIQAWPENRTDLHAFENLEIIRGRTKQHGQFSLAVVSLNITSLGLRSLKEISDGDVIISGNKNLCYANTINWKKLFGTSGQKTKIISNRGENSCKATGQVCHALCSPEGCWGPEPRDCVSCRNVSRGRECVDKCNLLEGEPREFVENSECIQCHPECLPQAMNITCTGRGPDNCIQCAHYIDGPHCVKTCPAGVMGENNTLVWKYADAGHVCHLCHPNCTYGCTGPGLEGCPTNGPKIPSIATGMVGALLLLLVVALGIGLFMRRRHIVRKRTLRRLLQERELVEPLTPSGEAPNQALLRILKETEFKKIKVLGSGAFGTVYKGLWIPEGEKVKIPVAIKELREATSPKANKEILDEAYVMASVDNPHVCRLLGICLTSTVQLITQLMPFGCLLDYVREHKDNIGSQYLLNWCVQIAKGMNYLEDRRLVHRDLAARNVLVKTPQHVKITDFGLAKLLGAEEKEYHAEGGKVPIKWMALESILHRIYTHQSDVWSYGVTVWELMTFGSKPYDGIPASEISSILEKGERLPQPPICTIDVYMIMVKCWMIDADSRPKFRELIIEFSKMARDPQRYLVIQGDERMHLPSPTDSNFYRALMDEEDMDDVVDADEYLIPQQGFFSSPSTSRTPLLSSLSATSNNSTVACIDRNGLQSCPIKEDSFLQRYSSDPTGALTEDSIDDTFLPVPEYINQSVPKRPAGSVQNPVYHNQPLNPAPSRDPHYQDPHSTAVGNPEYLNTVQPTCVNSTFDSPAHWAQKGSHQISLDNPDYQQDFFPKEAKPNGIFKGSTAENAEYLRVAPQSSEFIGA

[8] = biological target: ABL1-phosphorylated (Homo sapiens, UniProt P00519)
[9] = biological target: erbB2 (Homo sapiens, UniProt P04626); assay: Inhibition of other RTKs (IC50); format: biochemical
[10] = biological target: ABL1-nonphosphorylated (Homo sapiens, UniProt P00519)
[11] = biological target: TIE-2 (Homo sapiens, UniProt Q02763); assay: Inhibition of other RTKs (IC50); format: biochemical
[12] = test system: other kinases (VEGFR-2, FGFR-2, TIE-2, VEGFR, FGFR, EGFR, erbB2, src, Abl, Raf); assay: Selectivity relative to other kinases; format: biochemical; settings: at clinically achievable concentrations, e.g. VEGFR
[13] = test system: MV-411 FLT3 ITD cells; settings: combined with cytarabine in vitro; cited from earlier work
[14] = biological target: Src (Homo sapiens, UniProt P12931); assay: Inhibition of other RTKs (IC50); format: biochemical
Chain of Src (P12931 whole entry, species assumed): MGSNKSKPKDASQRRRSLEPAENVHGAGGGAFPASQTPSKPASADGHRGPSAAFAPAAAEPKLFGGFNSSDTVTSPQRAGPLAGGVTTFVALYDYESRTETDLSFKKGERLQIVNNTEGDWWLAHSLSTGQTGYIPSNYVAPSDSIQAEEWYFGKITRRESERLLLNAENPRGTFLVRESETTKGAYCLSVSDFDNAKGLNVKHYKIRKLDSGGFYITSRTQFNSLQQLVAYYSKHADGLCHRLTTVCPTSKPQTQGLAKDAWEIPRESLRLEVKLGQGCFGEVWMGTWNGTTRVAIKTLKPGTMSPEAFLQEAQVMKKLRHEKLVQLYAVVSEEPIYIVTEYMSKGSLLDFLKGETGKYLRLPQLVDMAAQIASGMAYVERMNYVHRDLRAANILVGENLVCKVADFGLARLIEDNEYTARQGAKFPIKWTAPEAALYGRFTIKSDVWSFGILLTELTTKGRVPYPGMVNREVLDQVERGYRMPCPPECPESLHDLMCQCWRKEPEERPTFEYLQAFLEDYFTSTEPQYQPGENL

[15] = test system: primary AML patient blasts with FLT3 D835 mutation; settings: MTT assay, 3 day exposure; cited from earlier work
[16] = test system: FLT3 ITD expressing Molm 14 cells; settings: cited from earlier work; for Percent Apoptosis: Molm 14
[17] = biological target: ABL1(T315I) nonphosphorylated (Homo sapiens, UniProt P00519, T315I)
[18] = test system: primary AML patient blast samples harboring the FLT3 ITD mutation; settings: samples from five patients, increasing concentrations, MTT; cited from earlier work
[19] = test system: Ba/F3 D835Y/ITD; settings: text: viability, read-out: IC50 pFLT3; cited from earlier work
[20] = test system: Ba/F3 D835N; settings: text: viability, read-out: IC50 pFLT3; cited from earlier work
[21] = biological target: wild type FLT3 receptor in HL60 (Homo sapiens, UniProt P36888); settings: cited from earlier work
Chain of wild type FLT3 receptor in HL60 (P36888 27-993): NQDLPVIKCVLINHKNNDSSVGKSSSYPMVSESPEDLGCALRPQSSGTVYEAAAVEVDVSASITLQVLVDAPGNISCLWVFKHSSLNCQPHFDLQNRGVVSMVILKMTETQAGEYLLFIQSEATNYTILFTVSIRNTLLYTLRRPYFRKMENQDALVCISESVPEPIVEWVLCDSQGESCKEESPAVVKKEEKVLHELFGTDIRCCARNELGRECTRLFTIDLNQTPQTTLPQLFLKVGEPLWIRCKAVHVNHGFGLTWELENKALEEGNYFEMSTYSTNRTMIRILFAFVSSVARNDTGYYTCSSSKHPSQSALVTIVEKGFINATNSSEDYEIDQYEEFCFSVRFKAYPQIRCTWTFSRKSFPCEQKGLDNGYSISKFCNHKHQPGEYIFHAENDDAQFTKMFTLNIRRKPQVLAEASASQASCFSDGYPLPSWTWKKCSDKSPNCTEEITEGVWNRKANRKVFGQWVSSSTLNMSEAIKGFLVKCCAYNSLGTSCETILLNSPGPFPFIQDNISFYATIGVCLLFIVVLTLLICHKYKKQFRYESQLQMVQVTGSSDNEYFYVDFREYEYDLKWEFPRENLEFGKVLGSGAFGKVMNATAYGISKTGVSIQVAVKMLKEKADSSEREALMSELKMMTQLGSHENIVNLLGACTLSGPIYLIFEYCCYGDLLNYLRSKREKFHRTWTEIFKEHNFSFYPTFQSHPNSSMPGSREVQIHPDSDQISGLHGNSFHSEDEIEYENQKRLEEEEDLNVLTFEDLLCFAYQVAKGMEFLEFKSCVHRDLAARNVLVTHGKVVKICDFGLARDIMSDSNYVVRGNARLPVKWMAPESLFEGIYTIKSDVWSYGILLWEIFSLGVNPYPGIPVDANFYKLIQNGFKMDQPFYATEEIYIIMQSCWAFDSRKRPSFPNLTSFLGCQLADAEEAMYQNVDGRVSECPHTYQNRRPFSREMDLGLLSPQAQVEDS

[22] = test system: luciferase-expressing MV-411 cells; settings: 15 mg/kg intraperitoneally, male NSG mice, twice daily 2 days then once daily 2 days; p<0.01; cited from earlier work

Q: For `CC1(COc2ccc3c(c2)ncn3-c2ccc3cccc(N4CCC(N)CC4)c3n2)COC1` [Crenolanib Besylate], which cytotoxic effect [1] is on record?
A: The cytotoxic effect was “induced a cytotoxic effect”.

Q: And the IC50 [2]?
A: The IC50 was 6.38 nM.

Q: And the IC50 [3]?
A: Its IC50 is greater than 5070 nM.

Q: And the IC50 [4]?
A: Its IC50 is 273 nM.

Q: And the Kd [5]?
A: The Kd was 760 nM.

Q: And the cytarabine accumulation [6]?
A: The cytarabine accumulation was “does not decrease cytarabine accumulation”.

Q: What about the IC50 [7] of the same molecule?
A: Its IC50 is greater than 10000 nM.

Q: And the Kd [8]?
A: The Kd was 88 nM.

Q: What about the IC50 [9] of the same molecule?
A: The IC50 was greater than 10000 nM.

Q: And the Kd [10]?
A: The Kd was 600 nM.

Q: And the IC50 [11]?
A: Its IC50 is greater than 5070 nM.

Q: And the “inhibition of other known RTKs or serine/threonine kinases” value [12]?
A: Its value is “does not inhibit”.

Q: And the “anti-leukemic effect of combination with cytarabine” value [13]?
A: Its value is “Synergistic in vitro anti-leukemic effects”.

Q: What about the IC50 [14] of the same molecule?
A: Its IC50 is 4980 nM.

Q: And the “cytotoxic response compared with sorafenib” value [15]?
A: The value was “greater cytotoxic response”.

Q: And the “Percent Apoptosis” value ([16]; compound concentration 20 nM)?
A: The value was 32.79%.

Q: What about the “Percent Apoptosis” value ([16]; compound concentration 50 nM) of the same molecule?
A: Its value is 44.99%.

Q: What about the “Percent Apoptosis” value ([16]; compound concentration 100 nM) of the same molecule?
A: Its value is 51.17%.

Q: What about the “cytotoxic response of Molm 14 cells compared to sorafenib” value ([16]; concentrations 20 nM to 100 nM) of the same molecule?
A: Its value is “significantly higher as compared to sorafenib”.

Q: And the Kd [17]?
A: The Kd was 12000 nM.

Q: And the cytotoxicity [18]?
A: Its cytotoxicity is “Cytotoxicity was observed in a dose dependent fashion”.

Q: What about the IC50 [19] of the same molecule?
A: The IC50 was 20.4 nM.

Q: What about the IC50 [20] of the same molecule?
A: Its IC50 is 3.93 nM.

Q: What about the “phosphorylation inhibition of wild type FLT3 receptor” value [21] of the same molecule?
A: The value was “increased phosphorylation inhibition in a dose dependent fashion”.

Q: And the “MV-411-luciferase bone marrow infiltration compared to vehicle” value [22]?
A: Its value is “siginificantly suppressed”.

Q: For `CNC(=O)c1cc(Oc2ccc(NC(=O)Nc3ccc(Cl)c(C(F)(F)F)c3)cc2)ccn1` [Sorafenib, reference compound], which cytotoxic effect [1] is on record?
A: The cytotoxic effect was “ineffective”.

Q: What about the “Percent Apoptosis” value ([16]; compound concentration 20 nM) of the same molecule?
A: Its value is 13.07%.

Q: And the “Percent Apoptosis” value ([16]; compound concentration 50 nM)?
A: The value was 30.21%.

Q: And the “Percent Apoptosis” value ([16]; compound concentration 100 nM)?
A: Its value is 44.09%.
